Test [1] concerns the target T1, wild-type EGFR (Homo sapiens, UniProt P00533).
T1 construct: purchased Signalchem
Briefly: Enzymology experiment in vitro (HTRF/FRET kinase activity), wild-type EGFR. It is filed as biochemical. To be noted: HTRF KinEASE-TK. The procedure:
(§1) 1. Experimental Materials
(§2) HTRF KinEASE-TK kit detection reagent, purchased from Cisbio
(§3) 1) 10 nL of gradient diluted compound was transferred into a 384-well experimental plate using Echo 550 (Labcyte).
(§4) 2) 5 μL of 2×EGFR enzyme solution was added to the 384-well experimental plate and incubated at room temperature for 10 minutes.
(§5) 3) 5 μL of 2× substrate solution containing polypeptide and ATP was added to the 384-well experimental plate and incubated at room temperature for 40 minutes.
(§6) 4) 10 μL of detection solution containing EDTA, XL665-labeled streptavidin and Eu^3+-labeled antibody was added thereto and incubated at room temperature for 1 hour.
For orientation: Time-resolved FRET reads energy transfer from a long-lived donor to a nearby acceptor.

Test [2] concerns the target T2, L858R/T790M/C797S triple mutant EGFR (Homo sapiens, UniProt P00533, C797S/L858R/T790M).
T2 construct: purchased Signalchem
Briefly: Enzymology experiment in vitro (HTRF/FRET kinase activity), L858R/T790M/C797S triple mutant EGFR. It is filed as biochemical. To be noted: HTRF KinEASE-TK. The procedure: as §1, §2, §3, §4, §5, §6

Test [3] deals with EGFR wild-type cell line A431. Briefly: Cell proliferation inhibition experiment (CellTiter-Glo), A431. It is filed as cell-based. To be noted: A431 cells, Cell Titer-Glo, read-out: A431 EGFR WT IC50. As to the method: A431 cells, purchased from ATCC.
1) A431 cells were inoculated in a 384-well culture plate at a density of 800 cells per well, 30 μL per well, placed in a cell incubator, and cultured for 24 hours (37° C., 5% CO2).
(§7) 3) 30 nL of gradient diluted compound was transferred into the 384-well experimental plate using Echo 550 (Labcyte) at a DMSO final concentration of 0.1%, and the culture plate was incubated in a cell incubator for 72 hours (37° C., 5% CO2).
(§8) 4) 30 μL of Cell Titer-Glo reagent was added to each well and left for 30 minutes at room temperature and protected from light.
(§9) 5) Envision microplate reader (PerkinElmer) detected chemiluminescence signals.
(§10) 6) GraphPad Prism 8 software was used for data analysis to obtain the IC50 of the compounds of the present disclosure and the positive control.

Test [4] addresses Ba/F3 De119/T790M/C797S EGFR triple mutant cell line (Homo sapiens, UniProt P00533, T790M/C797S, cells depend on it, form not given). In words: Cell proliferation inhibition experiment (CellTiter-Glo), Ba/F3 De119/T790M/C797S. It counts as cell-based. The conditions noted are these: Ba/F3 Del19/T790M/C797S EGFR triple mutant cells, 72 hours, Cell Titer-Glo; read-out: Ba/F3 (Del19/T790M/C797S) IC50. As to the method:
as §7, §8, §9, §10
(In general: In ATP-based viability assays light output follows the ATP content of the culture.)

Test [5] has as its target Ba/F3 L858R/T790M/C797S EGFR triple mutant cell line (Homo sapiens, UniProt P00533, T790M/C797S/L858R, cells depend on it). In words: Cell proliferation inhibition experiment (CellTiter-Glo), Ba/F3 L858R/T790M/C797S. It counts as cell-based. The conditions noted are these: 72 hours, Cell Titer-Glo, read-out: Ba/F3 (L858R/T790M/C797S) IC50. As to the method:
as §7, §8, §9, §10

Where [6] appears, read: read-out: EGFR (L858R/T790M/C797S) IC50.

Like-named read-outs stand apart in the source and are kept apart here.

T1 sequence (P00533 25-1210): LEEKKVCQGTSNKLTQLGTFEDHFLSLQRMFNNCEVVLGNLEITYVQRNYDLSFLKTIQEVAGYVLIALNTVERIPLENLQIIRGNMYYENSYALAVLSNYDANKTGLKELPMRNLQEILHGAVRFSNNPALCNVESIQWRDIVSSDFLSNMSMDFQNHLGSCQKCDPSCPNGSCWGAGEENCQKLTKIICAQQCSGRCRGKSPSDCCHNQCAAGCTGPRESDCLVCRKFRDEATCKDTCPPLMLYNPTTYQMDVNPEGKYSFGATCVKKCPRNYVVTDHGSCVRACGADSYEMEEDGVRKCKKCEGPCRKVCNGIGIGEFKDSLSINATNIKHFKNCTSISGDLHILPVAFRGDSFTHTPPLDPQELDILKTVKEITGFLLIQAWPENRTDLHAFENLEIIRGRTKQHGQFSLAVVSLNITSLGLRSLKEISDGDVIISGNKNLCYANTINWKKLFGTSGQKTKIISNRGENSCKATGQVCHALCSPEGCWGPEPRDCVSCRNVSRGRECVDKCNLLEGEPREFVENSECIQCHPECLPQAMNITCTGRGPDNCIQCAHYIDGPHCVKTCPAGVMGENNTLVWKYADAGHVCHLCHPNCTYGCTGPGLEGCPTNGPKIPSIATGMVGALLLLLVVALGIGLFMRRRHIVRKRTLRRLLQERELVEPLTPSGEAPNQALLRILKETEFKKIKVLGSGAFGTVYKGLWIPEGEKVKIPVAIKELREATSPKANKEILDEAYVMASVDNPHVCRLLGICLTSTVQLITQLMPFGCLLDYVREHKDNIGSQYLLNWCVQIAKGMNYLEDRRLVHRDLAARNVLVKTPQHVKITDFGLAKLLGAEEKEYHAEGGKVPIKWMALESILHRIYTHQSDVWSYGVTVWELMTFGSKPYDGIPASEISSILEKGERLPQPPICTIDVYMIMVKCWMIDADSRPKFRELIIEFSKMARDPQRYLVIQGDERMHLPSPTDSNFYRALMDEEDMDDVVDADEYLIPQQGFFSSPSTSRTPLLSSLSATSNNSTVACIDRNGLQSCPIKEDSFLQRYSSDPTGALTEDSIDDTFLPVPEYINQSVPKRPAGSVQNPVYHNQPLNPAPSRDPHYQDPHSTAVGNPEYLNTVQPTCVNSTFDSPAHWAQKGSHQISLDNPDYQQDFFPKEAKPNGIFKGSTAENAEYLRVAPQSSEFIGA
T2 sequence (P00533 25-1210 T790M/C797S/L858R): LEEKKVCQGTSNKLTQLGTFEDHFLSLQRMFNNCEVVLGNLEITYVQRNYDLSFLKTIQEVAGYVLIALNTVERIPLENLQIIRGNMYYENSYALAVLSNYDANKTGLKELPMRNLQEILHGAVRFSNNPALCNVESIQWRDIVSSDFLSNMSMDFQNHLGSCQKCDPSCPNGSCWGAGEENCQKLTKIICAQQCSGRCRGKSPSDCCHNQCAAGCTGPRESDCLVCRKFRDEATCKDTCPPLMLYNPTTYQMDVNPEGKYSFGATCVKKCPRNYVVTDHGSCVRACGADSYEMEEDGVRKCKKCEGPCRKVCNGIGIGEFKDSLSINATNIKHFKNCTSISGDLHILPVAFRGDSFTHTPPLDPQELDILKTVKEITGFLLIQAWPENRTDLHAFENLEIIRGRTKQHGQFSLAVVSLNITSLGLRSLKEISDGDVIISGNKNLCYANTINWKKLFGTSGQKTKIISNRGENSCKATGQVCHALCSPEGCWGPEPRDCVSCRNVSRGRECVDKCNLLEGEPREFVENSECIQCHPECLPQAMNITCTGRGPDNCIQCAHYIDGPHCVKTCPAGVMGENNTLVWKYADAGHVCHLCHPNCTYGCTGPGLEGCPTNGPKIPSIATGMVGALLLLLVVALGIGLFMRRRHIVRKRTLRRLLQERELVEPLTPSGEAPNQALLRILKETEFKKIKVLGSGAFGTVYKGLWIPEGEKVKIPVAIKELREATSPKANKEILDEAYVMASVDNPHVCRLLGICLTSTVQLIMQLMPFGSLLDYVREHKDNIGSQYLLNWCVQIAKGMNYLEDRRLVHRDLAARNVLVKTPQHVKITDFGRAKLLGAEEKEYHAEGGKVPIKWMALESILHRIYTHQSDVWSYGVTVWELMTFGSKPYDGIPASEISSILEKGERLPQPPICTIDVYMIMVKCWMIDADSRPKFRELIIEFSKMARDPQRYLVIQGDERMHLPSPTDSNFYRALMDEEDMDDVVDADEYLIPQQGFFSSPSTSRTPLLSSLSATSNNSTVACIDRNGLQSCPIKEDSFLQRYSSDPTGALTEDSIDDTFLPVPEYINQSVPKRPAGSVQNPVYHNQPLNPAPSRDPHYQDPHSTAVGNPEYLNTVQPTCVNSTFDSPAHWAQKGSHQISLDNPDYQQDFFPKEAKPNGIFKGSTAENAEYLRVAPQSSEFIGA
Chain of Ba/F3 L858R/T790M/C797S EGFR triple mutant cell line (P00533 whole entry T790M/C797S/L858R): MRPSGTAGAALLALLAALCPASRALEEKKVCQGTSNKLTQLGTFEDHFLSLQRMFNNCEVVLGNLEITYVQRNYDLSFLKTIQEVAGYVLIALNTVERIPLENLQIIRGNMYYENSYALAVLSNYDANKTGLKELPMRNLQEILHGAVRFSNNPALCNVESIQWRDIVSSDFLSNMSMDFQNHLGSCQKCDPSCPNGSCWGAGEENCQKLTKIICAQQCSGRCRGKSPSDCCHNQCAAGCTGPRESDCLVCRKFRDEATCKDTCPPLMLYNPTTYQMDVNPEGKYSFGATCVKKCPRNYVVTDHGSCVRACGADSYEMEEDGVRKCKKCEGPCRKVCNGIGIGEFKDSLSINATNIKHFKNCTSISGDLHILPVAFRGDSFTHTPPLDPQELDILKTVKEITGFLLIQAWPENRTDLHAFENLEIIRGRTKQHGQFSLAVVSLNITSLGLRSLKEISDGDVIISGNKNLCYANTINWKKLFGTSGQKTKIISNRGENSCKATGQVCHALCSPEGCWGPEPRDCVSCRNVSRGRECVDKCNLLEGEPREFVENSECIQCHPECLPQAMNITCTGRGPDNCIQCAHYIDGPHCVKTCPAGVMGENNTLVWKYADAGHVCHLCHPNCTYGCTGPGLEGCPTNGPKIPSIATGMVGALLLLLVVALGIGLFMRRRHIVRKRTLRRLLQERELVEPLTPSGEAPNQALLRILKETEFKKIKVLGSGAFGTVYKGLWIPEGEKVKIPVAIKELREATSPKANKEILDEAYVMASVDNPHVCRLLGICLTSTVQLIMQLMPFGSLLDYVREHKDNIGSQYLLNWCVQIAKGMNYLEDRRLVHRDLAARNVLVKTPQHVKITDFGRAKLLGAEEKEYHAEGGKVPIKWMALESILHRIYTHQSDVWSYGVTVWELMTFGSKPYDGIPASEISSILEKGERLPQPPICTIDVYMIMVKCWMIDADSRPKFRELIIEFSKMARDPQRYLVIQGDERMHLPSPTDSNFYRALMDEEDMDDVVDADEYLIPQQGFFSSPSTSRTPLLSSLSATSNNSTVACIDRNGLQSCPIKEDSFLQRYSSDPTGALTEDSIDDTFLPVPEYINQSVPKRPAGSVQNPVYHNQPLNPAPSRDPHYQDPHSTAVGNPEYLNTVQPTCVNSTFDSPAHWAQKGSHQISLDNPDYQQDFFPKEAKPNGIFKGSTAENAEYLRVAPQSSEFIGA
Chain of Ba/F3 De119/T790M/C797S EGFR triple mutant cell line (P00533 with tags, fused parts or gaps DEL746-750/T790M/C797S, form open): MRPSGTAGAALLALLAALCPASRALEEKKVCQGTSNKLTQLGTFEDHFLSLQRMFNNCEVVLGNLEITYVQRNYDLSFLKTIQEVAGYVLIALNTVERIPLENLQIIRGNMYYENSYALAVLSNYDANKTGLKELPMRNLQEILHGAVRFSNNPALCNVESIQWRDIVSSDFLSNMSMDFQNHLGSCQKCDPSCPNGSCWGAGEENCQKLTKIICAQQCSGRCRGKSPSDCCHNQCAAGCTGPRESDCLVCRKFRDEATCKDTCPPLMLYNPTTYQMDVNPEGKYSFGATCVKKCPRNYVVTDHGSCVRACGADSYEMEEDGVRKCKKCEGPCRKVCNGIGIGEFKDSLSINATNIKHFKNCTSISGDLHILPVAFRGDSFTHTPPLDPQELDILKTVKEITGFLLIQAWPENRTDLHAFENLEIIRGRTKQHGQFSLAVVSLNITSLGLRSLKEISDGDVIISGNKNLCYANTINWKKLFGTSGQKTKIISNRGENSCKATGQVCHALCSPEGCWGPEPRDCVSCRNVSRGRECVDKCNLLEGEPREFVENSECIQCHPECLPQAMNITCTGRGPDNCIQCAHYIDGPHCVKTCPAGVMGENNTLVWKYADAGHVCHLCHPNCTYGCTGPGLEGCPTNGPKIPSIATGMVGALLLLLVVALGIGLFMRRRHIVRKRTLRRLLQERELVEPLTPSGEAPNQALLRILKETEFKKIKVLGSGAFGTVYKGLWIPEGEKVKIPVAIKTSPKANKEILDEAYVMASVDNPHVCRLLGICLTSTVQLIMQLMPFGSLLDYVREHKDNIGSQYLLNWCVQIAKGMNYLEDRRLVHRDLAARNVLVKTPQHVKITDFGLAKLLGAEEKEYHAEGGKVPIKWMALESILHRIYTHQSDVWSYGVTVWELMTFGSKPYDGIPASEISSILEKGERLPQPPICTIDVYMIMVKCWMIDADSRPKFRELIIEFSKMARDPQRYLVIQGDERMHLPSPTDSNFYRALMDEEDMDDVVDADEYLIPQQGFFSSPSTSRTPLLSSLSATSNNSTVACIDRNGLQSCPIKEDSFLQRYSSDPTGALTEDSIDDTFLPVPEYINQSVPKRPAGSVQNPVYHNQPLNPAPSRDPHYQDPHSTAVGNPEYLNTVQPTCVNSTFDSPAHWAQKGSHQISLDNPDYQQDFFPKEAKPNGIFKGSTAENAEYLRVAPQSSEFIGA

Turning to `COc1cc(N2CCC(N3CC4(CN(C)C4)C3)CC2)c(-c2cnn(C)c2)cc1Nc1ncc(Br)c(Nc2ccc3nccnc3c2P(C)(C)=O)n1` [compound 172], the IC50 amounted to 0.69 nM in test [1] (read-out: EGFR (WT) IC50); 0.14 nM in test [2] (setting [6]); 329 nM in test [3] (Homo sapiens, A-431, 72 h). The GI50 in test [4] is 102 nM; in test [5], 328 nM.
Regarding `COc1cc(N2CCC3CCN(CC4CC4)C3C2)c(-c2cnn(C)c2)cc1Nc1ncc(Br)c(Nc2ccc3nccnc3c2P(C)(C)=O)n1` (stereo not shown) [compound 227], the IC50 stood at 2.69 nM in test [1] (read-out: EGFR (WT) IC50); 0.59 nM in test [2] (setting [6]); 34.7 nM in test [3] (Homo sapiens, A-431, 72 h). The GI50 in test [4] was found to be 2.78 nM; in test [5] it was 6.64 nM.
On to `COc1cc(N2CCC(C)(OC)CC2)c(-c2cnn(C)c2)cc1Nc1ncc(Br)c(Nc2ccc3nccnc3c2P(C)(C)=O)n1` [compound 188], for which the IC50 came to 5.62 nM in test [1] (read-out: EGFR (WT) IC50); 0.43 nM in test [2] (setting [6]); 56.6 nM in test [3] (Homo sapiens, A-431, 72 h). Besides, the GI50 in test [4] was found to be 0.61 nM; in test [5], 0.87 nM.
In the case of `COc1cc(N(C)CCN(C)C)c(-c2cnn(C)c2)cc1Nc1ncc(Br)c(Nc2ccc3nccnc3c2P(C)(C)=O)n1` [compound 21], the IC50 in test [1] (read-out: EGFR (WT) IC50) is 1.57 nM; in test [2] (setting [6]) it was 0.06 nM; in test [3] (Homo sapiens, A-431, 72 h), 63.9 nM. Also, the GI50 in test [4] turned out to be 4.03 nM; in test [5] it was 18.1 nM.
Turning to `COc1cc(N2CCC(N3CC(C)N(C)C(C)C3)CC2)c(-c2cnn(C)c2)cc1Nc1ncc(Br)c(Nc2ccc3nccnc3c2P(C)(C)=O)n1` (stereo not shown) [compound 197], the IC50 in test [1] (read-out: EGFR (WT) IC50) is 0.62 nM; in test [2] (setting [6]), 0.25 nM; in test [3] (Homo sapiens, A-431, 72 h) it was 95.6 nM. Moreover, the GI50 amounted to 7.7 nM in test [4] and 14.3 nM in test [5].
With `COCCN1CCC2(CC1)CCN(c1cc(OC)c(Nc3ncc(Br)c(Nc4ccc5nccnc5c4P(C)(C)=O)n3)cc1-c1cnn(C)c1)CC2` [compound 139], the IC50 came to 0.57 nM in test [1] (read-out: EGFR (WT) IC50); 0.24 nM in test [2] (setting [6]); 61 nM in test [3] (Homo sapiens, A-431, 72 h). The values for the GI50 in test [4] and in test [5] were 1.59 nM and 2.33 nM, respectively.
Take `COc1cc(N2CCN(CCF)CC2)c(-c2cnn(C)c2)cc1Nc1ncc(Br)c(Nc2cc3c(cc2P(C)(C)=O)CC3)n1` [compound 138]: the IC50 was found to be 30.7 nM in test [1] (read-out: EGFR (WT) IC50); 0.53 nM in test [2] (setting [6]); 630 nM in test [3] (Homo sapiens, A-431, 72 h). The values for the GI50 in test [4] and in test [5] were 9.31 nM and 11.9 nM, respectively.
The like results for `COc1cc(N2C[C@H]3C[C@@H]2CO3)c(-c2cnn(C)c2)cc1Nc1ncc(Br)c(Nc2ccc3nccnc3c2P(C)(C)=O)n1` [compound 114] were, in that order, 5.41 nM, 0.56 nM, 271 nM, 5.86 nM and 11.2 nM.
As for `CCc1cnc(Nc2cc(-c3cnn(C)c3)c(N3CCOCC3)cc2OC)nc1Nc1ccc2nccnc2c1P(C)(C)=O` [Compound 31, (6-((5-ethyl-2-((2-methoxy-5-(1-methyl-1H-pyrazol-4-yl)-4-morpholinylphenyl)amino)pyrimidin-4-yl)amino)quinoxalin-5-yl)dimethylphosphine oxide], the IC50 in test [1] (read-out: EGFR (WT) IC50) was found to be 0.38 nM; in test [2] (setting [6]) it was 0.25 nM; in test [3] (Homo sapiens, A-431, 72 h), 194 nM. Besides, the GI50 in test [4] came to 4.58 nM; in test [5], 12.8 nM.
As for `COc1cc(N2CCOCC2)c(-c2cnn(C)c2)cc1Nc1ncc(F)c(Nc2ccc3nccnc3c2P(C)(C)=O)n1` [compound 81], the IC50 in test [1] (read-out: EGFR (WT) IC50) is 7.68 nM; in test [2] (setting [6]), 0.34 nM; in test [3] (Homo sapiens, A-431, 72 h) it was ≥ 10000 nM. Also, the figures for the GI50 in test [4] and in test [5] were 19.1 nM and 32.4 nM, respectively.
The like results for `CN(C)CCN1CCOc2c(Nc3ncc(Br)c(Nc4ccc5nccnc5c4P(C)(C)=O)n3)cc(-c3cnn(C)c3)cc21` [compound 122] were, in that order, 3.42 nM, 0.62 nM, 37.2 nM, 2.07 nM and 9.96 nM.
The like results for `COc1cc(N2CC(C)OC(C)C2)c(-c2cnn(C)c2)cc1Nc1ncc(Br)c(Nc2cc3c(cc2P(C)(C)=O)CC3)n1` (racemic) [compound 136] were, in that order, 99.5 nM, 5.3 nM, 1750 nM, 13.7 nM and 57.1 nM.
In the case of `CCOP(C)(=O)c1c(Nc2nc(Nc3cc(-c4cnn(C)c4)c(N4CCOCC4)c(F)c3OC)ncc2Br)ccc2nccnc12` (stereo not shown) [compound 24], the IC50 in test [1] (EGFR (WT) IC50(nM)) was found to be 346 nM; in test [2] (EGFR (L858R/T790M/C797S) IC50(nM)) it was 11.4 nM; in test [3] (Homo sapiens, A-431, 72 hours), 567 nM. For the same compound, the GI50 worked out at 45.2 nM in test [4] and 139 nM in test [5].
On to `COc1cc(N2CCOCC2)c(-c2cnn(C)c2)cc1Nc1ncc(Br)c(Nc2ccc3nccnc3c2P(C)(C)=O)n1` [Compound 1, (6-((5-bromo-2-((2-methoxy-5-(1-methyl-1H-pyrazol-4-yl)-4-morpholinophenyl)amino)pyrimidin-4-yl)amino)quinoxalin-5-yl)-dimethylphosphine oxide], for which the IC50 in test [1] (read-out: EGFR (WT) IC50) was 0.94 nM; in test [2] (setting [6]), 0.12 nM; in test [3] (Homo sapiens, A-431, 72 h), 137 nM. Further, the GI50 turned out to be 0.58 nM in test [4] and 5.61 nM in test [5].
Take `COc1cc(N2CCOC(COC(C)C)C2)c(-c2cnn(C)c2)cc1Nc1ncc(Br)c(Nc2ccc3nccnc3c2P(C)(C)=O)n1` (stereo not shown) [compound 182]: the IC50 in test [1] (read-out: EGFR (WT) IC50) was 8.49 nM; in test [2] (setting [6]) it was 0.4 nM; in test [3] (Homo sapiens, A-431, 72 h), 101 nM. In addition, the GI50 in test [4] was 1.71 nM; in test [5], 4.43 nM.
For `COc1cc(N2CCC(N3CCN(C)CC3)CC2)c(-c2cnn(C)c2)cc1Nc1ncc(F)c(Nc2ccc3nccnc3c2P(C)(C)=O)n1` [compound 119], in that order: 4.07 nM, 1.3 nM, 639 nM, 36.6 nM and 239 nM.
As for `CCN1CCC2(CC1)CCN(c1cc(OC)c(Nc3ncc(Br)c(Nc4ccc5nccnc5c4P(C)(C)=O)n3)cc1-c1cnn(C)c1)CC2` [compound 226], the IC50 turned out to be 1.4 nM in test [1] (read-out: EGFR (WT) IC50); 0.19 nM in test [2] (setting [6]); 47.4 nM in test [3] (Homo sapiens, A-431, 72 h). The GI50 in test [4] came to 1.55 nM; in test [5] it was 4.34 nM.
As for `Cn1cc(-c2cc(Nc3ncc(Br)c(Nc4ccc5nccnc5c4P(C)(C)=O)n3)c3c(c2N2CCOCC2)CCCO3)cn1` [compound 51], the IC50 in test [1] (read-out: EGFR (WT) IC50) turned out to be 111 nM; in test [2] (setting [6]) it was 0.11 nM; in test [3] (Homo sapiens, A-431, 72 h), 292 nM. For the same compound, the GI50 in test [5] is 36.8 nM.
On to `COc1cnc(-c2cnn(C)c2)cc1Nc1ncc(C)c(Nc2ccc3nccnc3c2P(C)(C)=O)n1` [compound 53], for which the IC50 in test [1] (read-out: EGFR (WT) IC50) was found to be 87 nM; in test [2] (setting [6]) it was 3.6 nM; in test [3] (Homo sapiens, A-431, 72 h), 294 nM. Besides, the GI50 in test [4] came to 62.2 nM.
For the compound `COc1cc(S(C)(=O)=O)c(-c2cnn(C)c2)cc1Nc1ncc(Br)c(Nc2ccc3nccnc3c2P(C)(C)=O)n1` [compound 44], the IC50 in test [1] (read-out: EGFR (WT) IC50) is 1560 nM; in test [2] (setting [6]), 22 nM; in test [3] (Homo sapiens, A-431, 72 h) it was ≥ 5000 nM. The GI50 in test [4] amounted to 93.5 nM.
Regarding `COc1cc(N2CCC(N3CCOCC3)CC2)c(-c2cnn(C)c2)cc1Nc1ncc(Br)c(Nc2ccc3nccnc3c2P(C)(C)=O)n1` [compound 129], the figures for the IC50 in test [2] (setting [6]) and in test [3] (72 hours) were 0.27 nM and 86.2 nM, respectively. The results for the GI50 in test [4] and in test [5] were 0.72 nM and 2.71 nM, respectively.
For `CN1CCOc2c(Nc3ncc(Br)c(Nc4ccc5nccnc5c4P(C)(C)=O)n3)cc(-c3cnn(C)c3)cc21` [compound 47], the IC50 in test [1] (read-out: EGFR (WT) IC50) turned out to be 20.5 nM; in test [2] (setting [6]), 0.37 nM; in test [3] (Homo sapiens, A-431, 72 h), 126 nM. Further, the GI50 in test [4] was 4.31 nM.
With `CCn1cc(-c2cc(Nc3ncc(Br)c(Nc4ccc5nccnc5c4P(C)(C)=O)n3)c(OC)cc2N2CCOCC2)cn1` [compound 49], the IC50 is 21.5 nM in test [1] (read-out: EGFR (WT) IC50); 0.12 nM in test [2] (setting [6]); 234 nM in test [3] (Homo sapiens, A-431, 72 h). The GI50 in test [4] stood at 4.88 nM.

Values taken from patent publication US20230219986A1, “NOVEL AMINOPYRIMIDINE EGFR INHIBITOR” (QILU PHARMACEUTICAL CO., LTD., priority 2020, published 2023).
